Source: patent publication US20240368133A1, “Compounds for the Treatment of Pain, in Particular, Neuropathic Pain, and/or Other Diseases or Disorders that are Associated with AT2R and/or AT2R Mediated Signaling” (Confo Therapeutics N.V., priority 2021, published 2024)

Legend:
[1] = PAMPA (Parallel Artificial Membrane Permeability Assay), GIT model; format: in vitro ADME
Description: The Parallel Artificial Membrane Permeability Assay (PAMPA) is used as an in vitro model of passive, transcellular permeation. PAMPA eliminates the added complexities of active transport, allowing ranking compounds just based on a simple membrane permeability property. This simple assay also allows evaluation of permeability over a large pH range, which is valuable for a preliminary understanding of how orally delivered compounds might be absorbed across the entire gastrointestinal tract. Depending upon the types of lipids used and other experimental conditions, PAMPA may be designed to model absorption in gastrointestinal tract (PAMPA-GIT), blood-brain barrier penetration (PAMPA-BBB) or skin penetration (Skin PAMPA).
All steps of the PAMPA were carried out according to pION Inc. PAMPA Explorer™ Manual. The main principle of the assay is the incubation of compound in donor chamber (a well in Donor Plate) with aqueous buffer, which is separated from acceptor chamber (a well in Acceptor Plate) with another buffer by a phospholipid or hydrocarbon membrane fixed on a filter support. After the test, concentrations in the corresponding donor and acceptor wells are measured and permeability is calculated.
GIT model was simulated using GIT-0 phospholipid mix. Verapamil and quinidine (high permeability) and ranitidine (low permeability) were used as reference compounds. All compounds were tested in triplicates.
Solutions of the test and reference compounds were added into the Donor Plate wells in Prisma HT buffer (pH 7.4). Acceptor Sink Buffer was added into each well of the Acceptor Plate. Incubation was done at room temperature for 4 hours without stirring. After incubation, aliquots from both plates were transferred to optic UV-Vis plates and optic plates were read on microplate reader in absorbance mode in the range of 202-500 nm with 4 nm step. Compounds with low UV-Vis signal were detected by LC-MS/MS method (API 3000 (PE Sciex)). Both the positive and negative ion modes of the TurboIonSpray ion source were used. Acquisition and analysis of the data were performed using Analyst 1.5.2 software (PE Sciex). The apparent permeability coefficient was calculated according to the equation shown below:
with: • VD=volume of transport buffer in donor compartment • A=surface area of the lipids in the insert (effective growth area of the insert—0.3 sq.cm) • t=time of the assay, seconds • Cdon=final concentration of test compound in the donor compartment • Cref=starting concentration of test compound in the donor compartment • εa=apparent filter porosity, equals to 0.76
[formula] • Cacc=final concentration of test compound in the […] compartment • τss=steady state lag time, estimated as (54RM+1)×60 s
Values of Cdon/Cref and Cacc/Cref are practically calculated using optical absorbance data. Mass retention by the lipid membrane is a normal condition in PAMPA assays for hydrophobic compounds but high levels of the mass retention makes compounds more permeable in vivo than it could be predicted from PAMPA assay. Mass retention was calculated as follows:
• [drug]acc=final OD of test compound in acceptor well • [drug]d=starting OD of test compound in a donor well • [drug]fd=final OD of test compound in a donor well

[2] = Caco-2 permeability assay; format: in vitro ADME; conditions: human; for recovery at 90 min, 10 µM / efflux ratio at 90 min, 10 µM: Caco-2, pH 7.4; for Papp A→B at 90 min, 10 µM: pH 7.4, Caco-2, AB
Experimental: Caco-2 cells were cultured in 75 cm^2 flasks to 80-90% confluence according to the ATCC and Millipore recommendations (Arena A. et al., 2003) in humidified atmosphere at 37° C. and 5% CO2. Cells were detached with Trypsin/EDTA solution and resuspended in the cell culture medium to a final concentration of 2×10^5 cells/ml. 500 μl of the cell suspension was added to each well of HTS 24-Multiwell Insert System and 1000 μl of prewarmed complete medium was added to each well of the feeder-plate. Caco-2 cells were incubated in Multiwell Insert System for 21 days before the transport experiments. The medium in filter plate and feeder tray was refreshed every other day. After 21 days of the cell growth, the integrity of the monolayer was verified by measuring the transepithelial electrical resistance (TEER) for every well using the Millicell-ERS system ohm meter. The final TEER values were within the range 150-600 Ω×cm^2 (Srinivasan B. et al., 2015) as required for the assay conditions. 24-well insert plate was removed from its feeder plate and placed in a new sterile 24-well transport analysis plate. The inserts were washed with PBS after medium aspiration. To determine the rate of compounds transport in apical (A)-to-basolateral (B) direction, 300 μL of the test compound dissolved in transport buffer at 10 μM (HBSS, 25 mM HEPES, pH=7.4) was added into the filter wells; 1000 μL of buffer (HBSS, 25 mM HEPES, pH=7.4) was added to transport analysis plate wells. Propranolol, Atenolol, Quinidine and Digoxin were used as reference compounds. The plates were incubated for 90 min at 37° C. under continuous shaking at 50 rpm. 75 μL aliquots were taken from the donor and receiver compartments for LC-MS/MS analysis. All samples were mixed with 2 volumes of acetonitrile followed by protein sedimentation by centrifuging at 10000 rpm for 10 minutes. Supernatants were analyzed using the HPLC system coupled with tandem mass spectrometer. The apparent permeability (Papp) was calculated for Caco-2 permeability assay using the following equation:
• VA=volume of transport buffer in acceptor well • Area=surface area of the insert (equals to effective growth area of the insert −0.31 sq.cm) • Time=time of the assay • [drug]acc=concentration of test compound in acceptor well • [drug]initial,d=initial concentration of test compound in a donor well • Papp is expressed in 10^−6 cm/sec.
The % recovery can be useful in interpreting the Caco-2 data. If the recovery is very low, this may indicate poor solubility, binding of the compound to the test plate materials, metabolism by the Caco-2 cells, or accumulation of the compound in the cell monolayer. The % recovery was calculated using the following equation:
• Vacc=volume of compound solution in acceptor well […] • Vd=volume of compound solution in […] • Cacc=concentration of test compound in acceptor well (μM) • Cinitial,d=initial concentration of test compound in a donor well (μM)

| Structure (SMILES) | Mass retention (%) [1] | Permeability Papp, Log10 (10^−6 cm/s) [1] | recovery at 90 min, 10 µM [2] | Papp A→B at 90 min, 10 µM [2] | efflux ratio at 90 min, 10 µM [2] |
| --- | --- | --- | --- | --- | --- |
| CCCCOC(=O)NS(=O)(=O)c1ccc(C(F)(F)F)cc1N1CCN(Cc2nc3ccccc3n2C)CC1 [Compound A-09, butyl N-[2-[4-[(1-methylbenzimidazol-2-yl)methyl]piperazin-1-yl]-4-(trifluoromethyl)phenyl]sulfonylcarbamate] | 10% | <−7 Log10 (10^−6 cm/s) |  |  |  |
| CCCCNC(=O)NS(=O)(=O)c1ccc(C(F)(F)F)cc1N1CCN(Cc2nc3ccccc3n2C)CC1 [Compound A-10, 1-butyl-3-[2-[4-[(1-methylbenzimidazol-2-yl)methyl]piperazin-1-yl]-4-(trifluoromethyl)phenyl]sulfonyl-urea] | 8% | <−7 Log10 (10^−6 cm/s) |  |  |  |
| CCCCNC(=O)NS(=O)(=O)c1ccc(C)cc1N1CCN(Cc2nc3ccccc3n2C)CC1 [Compound A-12, 1-butyl-3-[4-methyl-2-[4-[(1-methylbenzimidazol-2-yl)methyl]piperazin-1-yl]phenyl]sulfonyl-urea] | 7% | <−7 Log10 (10^−6 cm/s) |  |  |  |
| CC(C)Cc1ccc(-c2nn[nH]n2)c(N2CCN(Cc3cccnn3)CC2)c1 [Compound A-90, 3-[[4-[5-isobutyl-2-(2H-tetrazol-5-yl)phenyl]piperazin-1-yl]methyl]pyridazine] |  |  | 91% | < 3.4 ×10⁻⁶ cm/s |  |
| CC(C)Cc1cc(F)c(-c2nn[nH]n2)c(N2CCN(Cc3cccnn3)[C@@H](C)C2)c1 [Compound A-174, 3-[[(2S)-4-[3-fluoro-5-isobutyl-2-(2H-tetrazol-5-yl)phenyl]-2-methyl-piperazin-1-yl]methyl]pyridazine] | 0% | −5.5 Log10 (10^−6 cm/s) | 90% | 0.15 ×10⁻⁶ cm/s | 16 |
| CCC1CN(c2cc(CC(C)C)cc(F)c2-c2nn[nH]n2)CCN1Cc1cccnn1 (centres unmarked) [Compound A-178, 3-[[2-ethyl-4-[3-fluoro-5-isobutyl-2-(2H-tetrazol-5-yl)phenyl]piperazin-1-yl]methyl]pyridazine] |  |  | 94% | 1.2 ×10⁻⁶ cm/s | 7.2 |

Second part, led by results:

| Mass retention (%) [1] | Permeability Papp, Log10 (10^−6 cm/s) [1] | recovery at 90 min, 10 µM [2] | Papp A→B at 90 min, 10 µM [2] | Structure (SMILES) | efflux ratio at 90 min, 10 µM [2] |
| --- | --- | --- | --- | --- | --- |
| 28% | <−7 Log10 (10^−6 cm/s) |  |  | CC(C)Cc1ccc(-c2nn[nH]n2)c(N2CCN(Cc3nc4ccccc4n3C)CC2)c1 [Compound A-20, 2-[[4-[5-isobutyl-2-(2H-tetrazol-5-yl)-phenyl]piperazin-1-yl]methyl]-1-meth-yl-benzimidazole] |  |
| 24% | <−7 Log10 (10^−6 cm/s) |  |  | CC(C)Oc1ccc(-c2nn[nH]n2)c(N2CCN(Cc3nc4ccccc4n3C)CC2)c1 [Compound A-24, 2-[[4-[5-isopropoxy-2-(2H-tetrazol-5-yl)phenyl]piperazin-1-yl]methyl]-1-methyl-benzimidazole] |  |
|  |  | 77% | 2.8 ×10⁻⁶ cm/s | CC(C)Cc1ccc(-c2nn[nH]n2)c(N2CCN(Cc3nc4ccccc4c(=O)[nH]3)CC2)c1 [Compound A-31, 2-[[4-[5-isobutyl-2-(2H-tetrazol-5-yl)phenyl]piperazin-1-yl]methyl]-3H-quinazolin-4-one] |  |
| 20% | −4.6 Log10 (10^−6 cm/s) |  |  | CC(C)Oc1ccc(-c2nn[nH]n2)c(N2CCN(Cc3nc4ccccc4c(=O)[nH]3)CC2)c1 [Compound A-32] |  |
| 14% | −4.2 Log10 (10^−6 cm/s) |  |  | CC(C)Oc1ccc(-c2nn[nH]n2)c(N2CCN(Cc3nc4ccccc4s3)CC2)c1 [Compound A-51, 2-[[4-[5-isoprop-oxy-2-(2H-tetrazol-5-yl)phenyl]piper-azin-1-yl]methyl]-1,3-benzothiazole] |  |
